Laboratory results from article PMC10489644, “In Vitro Evaluation of the Potential for Drug Interactions by Salidroside” (Nutrients, 2023).
Read-outs that look alike come from different tables or passages of the source.

Tests used:
CYP2C8 [1] = biological target: T1, CYP2C8 (Homo sapiens, UniProt P10632); assay: CYP direct inhibition in human liver microsomes
T1 sequence (P10632 1-490): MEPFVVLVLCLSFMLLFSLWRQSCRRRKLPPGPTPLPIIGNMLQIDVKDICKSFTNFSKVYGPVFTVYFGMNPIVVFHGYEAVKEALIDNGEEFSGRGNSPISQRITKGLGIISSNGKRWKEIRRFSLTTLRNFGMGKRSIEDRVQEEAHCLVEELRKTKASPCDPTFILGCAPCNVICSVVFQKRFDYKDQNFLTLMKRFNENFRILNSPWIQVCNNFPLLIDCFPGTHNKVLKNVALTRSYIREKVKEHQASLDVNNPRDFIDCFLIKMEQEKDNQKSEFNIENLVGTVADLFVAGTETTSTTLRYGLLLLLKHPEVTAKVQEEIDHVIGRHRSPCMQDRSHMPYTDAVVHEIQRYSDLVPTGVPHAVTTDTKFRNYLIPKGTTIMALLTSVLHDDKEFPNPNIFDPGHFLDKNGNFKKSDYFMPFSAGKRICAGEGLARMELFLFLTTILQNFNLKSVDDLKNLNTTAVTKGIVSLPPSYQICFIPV

CYP2C8 [2] = biological target: T1, CYP2C8; assay: biochemical
CYP2C19 = CYP2C19 (Homo sapiens, UniProt P33261); assay: CYP direct inhibition in human liver microsomes
Sequence of CYP2C19 (P33261 whole entry): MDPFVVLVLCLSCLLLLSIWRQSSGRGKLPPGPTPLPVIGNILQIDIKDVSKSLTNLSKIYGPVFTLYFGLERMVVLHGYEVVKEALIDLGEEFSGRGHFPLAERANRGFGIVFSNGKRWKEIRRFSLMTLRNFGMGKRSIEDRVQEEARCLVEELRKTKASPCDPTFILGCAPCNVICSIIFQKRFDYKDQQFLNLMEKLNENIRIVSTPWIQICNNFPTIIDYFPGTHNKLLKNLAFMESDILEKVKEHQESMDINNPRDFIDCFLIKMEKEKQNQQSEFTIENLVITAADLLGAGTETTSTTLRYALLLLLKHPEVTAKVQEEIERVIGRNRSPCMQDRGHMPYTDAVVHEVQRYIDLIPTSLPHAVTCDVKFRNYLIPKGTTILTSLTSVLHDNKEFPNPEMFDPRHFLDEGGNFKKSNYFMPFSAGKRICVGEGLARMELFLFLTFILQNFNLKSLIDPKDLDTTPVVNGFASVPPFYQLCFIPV

[3] = Rat pharmacokinetics after IV or oral dosing; assay type: in vivo, Male Sprague–Dawley rats; settings: fa = fb/((1 − CL/Qh) × 100%)
Method: An estimation of the maximum plasma concentration of salidroside in humans was made from the pharmacokinetics in rats after oral dosing and the recommended human daily dose of salidroside of 60 mg (two 30 mg capsules). Male Sprague–Dawley rats were dosed either with IV or orally at 12 mg/kg (N = 6/group). Salidroside was moderately cleared (21 mL/min/kg) and well absorbed orally.

in vitro = settings: Sprague-Dawley (SD), rat, plasma, pH 7.4
CYP1A2 [4] = biological target: T2, CYP1A2 (Homo sapiens, UniProt P05177); assay: Time-dependent inhibition (IC50 shift) in human liver microsomes; assay type: in vitro ADME
T2 construct: Mixed human liver microsomes were purchased from BioreclamationIVT; tissue BioreclamationIVT; host or cells: mixed-donor pool of human liver microsomes (Lot ZZQ)
T2 sequence (P05177 1-516): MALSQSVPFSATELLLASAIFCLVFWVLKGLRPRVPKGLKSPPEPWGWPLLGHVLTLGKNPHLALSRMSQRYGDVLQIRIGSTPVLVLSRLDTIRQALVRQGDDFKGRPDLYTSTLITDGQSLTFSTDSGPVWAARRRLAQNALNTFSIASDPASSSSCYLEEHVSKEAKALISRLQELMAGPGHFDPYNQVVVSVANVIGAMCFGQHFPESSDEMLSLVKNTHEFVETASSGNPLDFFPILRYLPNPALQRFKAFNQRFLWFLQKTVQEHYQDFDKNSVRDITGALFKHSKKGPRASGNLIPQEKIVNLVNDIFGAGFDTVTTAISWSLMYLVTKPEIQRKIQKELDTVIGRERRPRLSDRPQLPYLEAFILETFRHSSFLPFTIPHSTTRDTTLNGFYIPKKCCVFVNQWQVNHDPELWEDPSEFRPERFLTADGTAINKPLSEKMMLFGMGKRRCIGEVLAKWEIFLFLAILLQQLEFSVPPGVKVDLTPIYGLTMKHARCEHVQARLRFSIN

CYP2B6 = assay: in vitro; settings: human; for % of Positive Control / Mean Enzyme Activity: 48 h
Method: (§1) The sandwich medium was removed, and the hepatocytes were treated with incubation solutions containing salidroside (1, 5, 10, and 30 µM), vehicle (0.1% DMSO), or positive inducers in triplicate for 24 h after the cultures were established. The incubation solution was aspirated and replaced with incubation solution containing the same concentrations of salidroside, vehicle, or positive inducers for an additional 24 h. The total treatment period was 48 h. After the treatment period of 48 h, the incubation solution was aspirated. Hepatocytes were washed twice with pre-warmed HBSS containing 10 mM HEPES (HBSS I) and then the remaining solution was aspirated. Hepatocytes were washed once with pre-warmed HBSS I and incubated with 140 μL of RLT (lysis buffer from RNeasy 96 Kit) supplemented with 1% β-mercaptoethanol. Plates were then stored at −70 °C in a freezer until RNA analysis. Before RNA extraction, the frozen plate was thawed, and cell lysates were transferred to 96-well plates. RNA isolation was performed using a QIAcube RNA extraction system. Reverse transcription was performed to obtain cDNA. Quantification of the selective genes by real-time quantitative polymerase chain reaction (qPCR) was performed with TaqMan universal PCR Master Mix on the Bio-rad CFX384 TouchTM Real-Time PCR System. The relative change in the mRNA level of the selected target genes induced by each test compound was expressed in relation to the vehicle control sample, and fold changes in gene expression were determined by the ΔΔCt method.
(§2) Enzyme activity (%) = PAR with compound/PAR vehicle × 100.

CYP1A2 [5] = assay: in vitro; settings: human; for % of Positive Control / Mean Enzyme Activity: 48 h
Method: as §1, §2

CYP3A4/5 = assay: in vitro; settings: human, microsomes

Structure (SMILES): OC[C@H]1O[C@@H](OCCc2ccc(O)cc2)[C@H](O)[C@@H](O)[C@@H]1O [Salidroside]
- IC50 (CYP2C8 [1]): > 50 µM
- IC50 (CYP2C8 [2]): > 50 µM
- IC50 (CYP2C19): > 50 µM
- estimated oral absorption (fa) [3]: 46%
- fraction unbound at 5 h, 5 µM (in vitro): 0.856
- IC50 Shift (CYP1A2 [4]; IC50 without/with preincubation, >[…] positive for TDI): no shift
- IC50 (CYP1A2 [4]; probe phenacetin, positive control not given, likely furafylline): > 50 µM
- IC50 (CYP1A2 [4]; read-out: IC50 after 30 min Preincubation with NADPH, probe phenacetin, positive control not given, likely furafylline): > 50 µM
- fold induction at 48 h, 0.1 µM (CYP2B6): 0.87
- fold induction at 48 h, 1 µM (CYP2B6): 0.58
- fold induction at 48 h, 10 µM (CYP2B6): 0.87
- % of Positive Control (CYP2B6; 0.1 µM): −3%
- Mean Enzyme Activity (CYP2B6; 0.1 µM): 0.77 pmol/10^6 cells/min
- % of Positive Control (CYP2B6; 1 µM): −9%
- Mean Enzyme Activity (CYP2B6; 1 µM): 0.51 pmol/10^6 cells/min
- % of Positive Control (CYP2B6; 10 µM): −3%
- Mean Enzyme Activity (CYP2B6; 10 µM): 0.76 pmol/10^6 cells/min
- fold induction at 48 h, 0.1 µM (CYP1A2 [5]): 0.8
- fold induction at 48 h, 1 µM (CYP1A2 [5]): 0.66
- fold induction at 48 h, 10 µM (CYP1A2 [5]): 0.76
- % of Positive Control (CYP1A2 [5]; 0.1 µM): −8%
- Mean Enzyme Activity (CYP1A2 [5]; 0.1 µM): 2.18 pmol/10^6 cells/min
- % of Positive Control (CYP1A2 [5]; 1 µM): −13%
- Mean Enzyme Activity (CYP1A2 [5]; 1 µM): 1.81 pmol/10^6 cells/min
- % of Positive Control (CYP1A2 [5]; 10 µM): −9%
- Mean Enzyme Activity (CYP1A2 [5]; 10 µM): 2.08 pmol/10^6 cells/min
- IC50 at 10 min (CYP3A4/5): > 50 µM
